Laboratory results published in publication PMC10900488, “Synthesis and Evaluation of (Bis)benzyltetrahydroisoquinoline Alkaloids as Antiparasitic Agents” (JACS Au, 2024).

Test system: not listed separately
Experiment: Mammalian toxicity, MTT colorimetric
Assay type: cell-based, murine
Conditions: mouse
Procedure: Table 1 depicts the antileishmanial (L. infantum) activity evaluation performed against both the amastigote form (evaluated microscopically using an ex vivo intracellular model of mice macrophages) and the promastigote one (using an MTT colorimetric method).[32],[33] The cytotoxicity was evaluated against NCTC cells using an MTT colorimetric method and the selectivity index was determined using the ratio between the CC50 values (NCTC cells) and the IC50 values (amastigotes).[32] […] With respect to the substituents on the C ring, larger, hydrophobic groups conferred greater bioactivity (e.g., 9b–d), whereas small, hydrophilic groups such as a hydroxyl group afford modest to poor bioactivity. […]
Murine conjunctive fibroblasts NCTC clone 929 (ATCC) were maintained in 10% foetal calf serum supplemented RPMI-1640 medium (pH 7.2) at 37 °C in a humidified incubator with 5% CO2. […]
(§1) Biological activity assays […]
NCTC cells (6 × 10^4/well) were added to a 96-well plate. Treatments of the cells with selected compounds (serially diluted 1.5 to 200 μM) was performed in a humidified incubator for 96 h at 37 °C and with 5% CO2.
The MTT colorimetric method was used to determine the 50% cytotoxic concentration (CC50) and the selectivity index (CC50 against NCTC cells/IC50 against amastigotes).15 […]
[…] At 6 h and 24 h post-treatment, a 1 mL aliquot was taken for imaging. The cell cycle experiment was preformed twice independently.
Generation of mNG::RAD51 tagged cell line
The single-stranded DNA-binding protein RAD51, associated with DNA Repair, LmxM.28.0550 was tagged with endogenous fluorescent protein mNeonGreen (mNG) at the N-terminus. […]
Primers for constructs and sgRNA were designed using LeishGEdit (http://www.leishGEdit.net).
PCR was at 94 °C for 5 min, followed by 35 cycles at 94 °C (15 sec), 65 °C (15 sec), 72 °C (2 min) then finally 72 °C (1 min).
PCR was at 94 °C for 30 sec, followed by 30 cycles at 94 °C (30 sec), 60 °C (30 sec), 72 °C (30 sec) then finally 72 °C (2 min). […] Combined PCR products were precipitated for 20 min with 10 μL 3M sodium acetate and 300 μL EtOH, pelleted at 14000 min-1 30 min, washed once with 70% EtOH, re-pelleted and resuspended in […]
Promastigotes (1 × 10^7 cells) were combined with PCR products and transfected using the Amaxa Nucleofector II.17 Electroporation was performed using 2 mm cuvettes on the X-100 program, followed by immediate suspension in pre-warmed M199 medium. Successful transfectants were selected with 20 μg mL-1 Puromycin 15 h after transfection, taking 4 days to reach stable growth in culture. mNG::RAD51 nuclear foci studies mNG::RAD51 promastigotes (5 × 10^6 cells mL-1) in 7 mL of M199 medium were treated with 7 μL o f compound (S)-9a or (S)-9b dissolved in DMSO giving a final concentration of 50 μM. Phleomycin was used as a positive control at a final concentration of 25 μg mL-1. At T = 0, 15, 30, 60 min, and 2, 6, 24 h post-treatment a 0.8 mL aliquot was taken for imaging.

Row | SMILES | CC50 at 96 h [µM]
1 | COc1cc2c(cc1OC)[C@@H](Cc1ccc(OC)c(Oc3ccc(C[C@H]4c5cc(OC)c(OC)cc5CCN4C)cc3)c1)N(C)CC2 [(R,S)-11] | 7.3 ± 0.7
2 | COc1ccc(COc2ccc(C[C@@H]3c4cc(OC)c(OC)cc4CCN3C)cc2Oc2ccc(C[C@H]3c4cc(OC)c(OC)cc4CCN3C)cc2)cc1 [(R,S)-12] | 2.7 ± 1.6
3 | COc1cc2c(cc1OC)[C@@H](Cc1ccc(Oc3cc(C[C@H]4c5cc(OC)c(OC)cc5CCN4C)ccc3O)cc1)N(C)CC2 [(R,S)-13] | 13.3 ± 1.6
4 | COc1ccc(COc2ccc(C[C@H]3c4cc(OC)c(OC)cc4CCN3C)cc2Br)cc1 [(S)-9c] | 6.3 ± 2.3

Test system: L. infantum promastigotes
Experiment: Antipromastigote assay (L. infantum), MTT colorimetric
Assay type: cell-based, Leishmania (L.) infantum
Conditions: Leishmania infantum; ± SD; MTT, 48 h; read-out: L. infantum IC50 promastigotes
Procedure: (§2) Table 1 depicts the antileishmanial (L. infantum) activity evaluation performed against both the amastigote form (evaluated microscopically using an ex vivo intracellular model of mice macrophages) and the promastigote one (using an MTT colorimetric method).[32],[33] The cytotoxicity was evaluated against NCTC cells using an MTT colorimetric method and the selectivity index was determined using the ratio between the CC50 values (NCTC cells) and the IC50 values (amastigotes).[32] […] With respect to the substituents on the C ring, larger, hydrophobic groups conferred greater bioactivity (e.g., 9b–d), whereas small, hydrophilic groups such as a hydroxyl group afford modest to poor bioactivity.
(§3) Leishmania (L.) infantum (MHOM/BR/1972/LD) amastigotes were obtained from golden hamsters (Mesocricetus auratus) spleens following 60-70 days of infection via differential centrifugation. The Stauber method was used to determine the number of parasites.12 […]
Biological activity assays
Antipromastigote Assay (L. infantum)
L. infantum promastigotes (1 × 10^6 cells/well) were added to a 96-well plates. Treatment of the cells with selected compounds (serially diluted 0.14 to 200 μM) was performed in M199 medium supplemented with 0.25% hemin and 10% fetal bovine serum for 48 h at 24 °C. The MTT colorimetric assay was used to determine the activity (IC50) of the compounds. Miltefosine was used as a standard drug and untreated promastigotes were used as a negative control. The half inhibitory concentration (IC50) was determined from a sigmoidal regression of the concentration-response curves generated in GraphPadPrism7. […]

Row | IC50 [µM] | SMILES
5 | 0.6 ± 0.1 | COc1cc2c(cc1OC)[C@@H](Cc1ccc(OC)c(Oc3ccc(C[C@H]4c5cc(OC)c(OC)cc5CCN4C)cc3)c1)N(C)CC2 [(R,S)-11]
6 | 0.4 ± 0.2 | COc1ccc(COc2ccc(C[C@@H]3c4cc(OC)c(OC)cc4CCN3C)cc2Oc2ccc(C[C@H]3c4cc(OC)c(OC)cc4CCN3C)cc2)cc1 [(R,S)-12]
7 | 5.2 ± 1.3 | COc1ccc(COc2ccc(C[C@H]3c4cc(OC)c(OC)cc4CCN3C)cc2Br)cc1 [(S)-9c]

Row | SMILES | IC50 [µM]
8 | COc1cc2c(cc1OC)[C@@H](Cc1ccc(Oc3cc(C[C@H]4c5cc(OC)c(OC)cc5CCN4C)ccc3O)cc1)N(C)CC2 [(R,S)-13] | 3.2 ± 1.7

Same assay, conditions: ± SD; MTT, 48 h

Row | L. infantum IC50 promastigotes | SMILES
9 | submicromolar | COc1ccc(COc2ccc(C[C@@H]3c4cc(OC)c(OC)cc4CCN3C)cc2Oc2ccc(C[C@H]3c4cc(OC)c(OC)cc4CCN3C)cc2)cc1 [(R,S)-12]

Test system: T. cruzi trypomastigotes
Experiment: Antitrypomastigote assay (T. cruzi), resazurin
Assay type: cell-based, Trypanosoma (T.) cruzi
Conditions: Trypanosoma cruzi, 24 h, ± SD, resazurin, read-out: T. cruzi IC50 trypomastigotes
Procedure: (§4) T. cruzi also assumes several cell morphologies during its lifecycle, which differ between the insect vector and mammalian host. In the latter environment, the parasite transitions between extracellular bloodstream trypomastigotes and intracellular amastigotes; both forms are clinically relevant, particularly during the acute stage of Chagas disease.[34] In this work, antitrypanosomal activity was tested against both the amastigote form (evaluated microscopically using an ex vivo intracellular model using mice macrophages) and the trypomastigote form (using the resazurin in vitro assay).[33],[35] […] In silico predictions of pharmacokinetic profiles were carried out using the SwissADME webtool (see the Supporting Information for details).[36] […]
(§5) […] Cultivation was performed in 2% fetal calf serum supplemented RPMI-1640 medium.
(§6) The trypomastigotes were maintained in a humidified incubator at 37 °C and with 5% CO2. […]
as §1
The half inhibitory concentration (IC50) was determined from a sigmoidal regression of the concentration-response curves generated in GraphPadPrism7. […]
Treatment of the cells with selected compounds (serially diluted 1.2 to 150 μM) was performed in a humidified incubator in RPMI 1640 medium for 24 h at 37 °C and with 5% CO2. Resazurin (0.011% in PBS) was added subsequently to verify parasite viability. Benznidazole was used as a standard drug. The optical density was determined at 570 nm using the FilterMax F5 (Molecular Devices). […]

Row | IC50 [µM] | SMILES
10 | 6.5 ± 2.1 | COc1cc2c(cc1OC)[C@@H](Cc1ccc(OC)c(Oc3ccc(C[C@H]4c5cc(OC)c(OC)cc5CCN4C)cc3)c1)N(C)CC2 [(R,S)-11]
11 | 1.3 ± 0.7 | COc1ccc(COc2ccc(C[C@@H]3c4cc(OC)c(OC)cc4CCN3C)cc2Oc2ccc(C[C@H]3c4cc(OC)c(OC)cc4CCN3C)cc2)cc1 [(R,S)-12]
12 | 11.1 ± 1.7 | COc1ccc(COc2ccc(C[C@H]3c4cc(OC)c(OC)cc4CCN3C)cc2Br)cc1 [(S)-9c]

Row | SMILES | IC50 [µM]
13 | COc1cc2c(cc1OC)[C@@H](Cc1ccc(Oc3cc(C[C@H]4c5cc(OC)c(OC)cc5CCN4C)ccc3O)cc1)N(C)CC2 [(R,S)-13] | 10.1 ± 3.9

Test system: T. cruzi amastigotes
Experiment: Antiamastigote assay (T. cruzi), ex vivo intracellular model using mice macrophages, microscopy
Assay type: cell-based, Trypanosoma (T.) cruzi
Conditions: Trypanosoma cruzi, Peritoneal macrophage, 48 h, ± SD, read-out: T. cruzi IC50 amastigotes
Procedure: as §4, §5, §6
(§7) Peritoneal macrophages were obtained via washing the peritoneal cavity of BALB/c mice with 10% foetal calf serum supplemented RPMI-1640 medium (pH 7.2). The macrophages were maintained in a humidified incubator at 37 °C and with 5% CO2.
as §1
Peritoneal macrophages (1 × 10^5 cells/well) obtained from the peritoneal cavity of BALB/C mice were added to 16-well chambers (NUNC, Thermo Fischer Scientific). The cells were infected with trypomastigotes (10:1 parasites/macrophage) for 2 h. Then treatment of the infected macrophages with selected compounds (serially diluted 1.2 to 100 μM) was performed in a humidified incubator for 48 h at 37 °C and with 5% CO2. The treated cells were fixed on slides using methanol, stained with Giemsa and observed under a light microscope (EVOS M5000, Thermo, USA) with digital image equipment. The infection index was used in order to determine the half inhibitory concentration (IC50) (no. infected macrophages × no. amastigotes / total no.

Row | IC50 [µM] | SMILES
14 | > 100 | COc1cc2c(cc1OC)[C@@H](Cc1ccc(OC)c(Oc3ccc(C[C@H]4c5cc(OC)c(OC)cc5CCN4C)cc3)c1)N(C)CC2 [(R,S)-11]
15 | > 100 | COc1ccc(COc2ccc(C[C@@H]3c4cc(OC)c(OC)cc4CCN3C)cc2Oc2ccc(C[C@H]3c4cc(OC)c(OC)cc4CCN3C)cc2)cc1 [(R,S)-12]
16 | 3.3 ± 0.01 | COc1ccc(COc2ccc(C[C@H]3c4cc(OC)c(OC)cc4CCN3C)cc2Br)cc1 [(S)-9c]

Row | SMILES | IC50 [µM]
17 | COc1cc2c(cc1OC)[C@@H](Cc1ccc(Oc3cc(C[C@H]4c5cc(OC)c(OC)cc5CCN4C)ccc3O)cc1)N(C)CC2 [(R,S)-13] | 2.8 ± 0.6

Test system: L. infantum amastigotes
Experiment: Antiamastigote assay (L. infantum), ex vivo intracellular model of mice macrophages, microscopy
Assay type: cell-based, Leishmania (L.) infantum
Conditions: Leishmania infantum, Peritoneal macrophage, 96 h, ± SD, intracellular, peritoneal macrophages, read-out: L. infantum IC50 amastigotes
Procedure: as §2, §3, §7, §1
Antiamastigote Assay (L. infantum)
Peritoneal macrophages (1 × 10^5/well) were added to a 16-well slide chambers (NUNC) and incubated with 5% CO2 at 37 °C. The cells were subsequently infected with L. infantum amastigotes (10:1 amastigotes/macrophage) for 24 h. Treatment of the cells with selected compounds (serially diluted 1.2 to 150 μM) was performed in a humidified incubator for 96 h at 37 °C and with 5% CO2. Untreated cells were used as a negative control and miltefosine was used as a standard drug. The treated cells were fixed on slides with methanol, stained with Giemsa and observed under a light microscope.13 The infection index was used in order to determine the half inhibitory concentration (IC50) (no. infected macrophages × no. amastigotes / total no. […]

Row | IC50 [µM] | SMILES
18 | > 150 | COc1cc2c(cc1OC)[C@@H](Cc1ccc(OC)c(Oc3ccc(C[C@H]4c5cc(OC)c(OC)cc5CCN4C)cc3)c1)N(C)CC2 [(R,S)-11]
19 | > 150 | COc1ccc(COc2ccc(C[C@@H]3c4cc(OC)c(OC)cc4CCN3C)cc2Oc2ccc(C[C@H]3c4cc(OC)c(OC)cc4CCN3C)cc2)cc1 [(R,S)-12]
20 | > 150 | COc1ccc(COc2ccc(C[C@H]3c4cc(OC)c(OC)cc4CCN3C)cc2Br)cc1 [(S)-9c]

Row | SMILES | IC50 [µM]
21 | COc1cc2c(cc1OC)[C@@H](Cc1ccc(Oc3cc(C[C@H]4c5cc(OC)c(OC)cc5CCN4C)ccc3O)cc1)N(C)CC2 [(R,S)-13] | > 150
